What was measured:
human CD73 = biological target: T1, human CD73 (Homo sapiens, UniProt P21589); assay: Inhibition of 5′-Nucleotidase Activity of CD73 (Assay 1); assay type: biochemical; conditions: human CD73 4 ng/ml, 50 μM CMP, 20 min at RT, malachite green readout; read-out: Assay 1: IC50, inhibition of 5′-nucleotidase activity of CD73
T1 construct: purchased R&D Systems 5795-EN-010
T1 sequence (P21589 27-549): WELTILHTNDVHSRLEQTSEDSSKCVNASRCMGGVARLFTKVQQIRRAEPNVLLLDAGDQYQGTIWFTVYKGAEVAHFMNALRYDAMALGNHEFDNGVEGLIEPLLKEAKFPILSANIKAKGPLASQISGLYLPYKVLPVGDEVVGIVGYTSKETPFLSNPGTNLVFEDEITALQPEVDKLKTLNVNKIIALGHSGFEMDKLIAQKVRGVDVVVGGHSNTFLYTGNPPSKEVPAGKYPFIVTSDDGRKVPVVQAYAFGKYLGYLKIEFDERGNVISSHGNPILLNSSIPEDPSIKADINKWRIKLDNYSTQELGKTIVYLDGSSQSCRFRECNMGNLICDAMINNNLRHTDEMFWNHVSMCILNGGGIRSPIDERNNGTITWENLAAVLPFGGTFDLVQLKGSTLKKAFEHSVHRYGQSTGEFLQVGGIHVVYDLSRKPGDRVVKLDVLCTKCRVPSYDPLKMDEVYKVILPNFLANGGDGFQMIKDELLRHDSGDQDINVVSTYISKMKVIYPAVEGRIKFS
Description: Inhibition of 5′-Nucleotidase Activity of CD73 (Assay 1)
Compounds of the present invention were tested for the ability to inhibit CD73 enzyme activity. Tested compounds were dissolved in DMSO (50× final concentration), and 3.2 μL of the solutions added to 96-well polystyrene plates. To these wells were added, 100 μL of human CD73 (R&D Systems Cat. No. 5795-EN-010) and 57 μL of cytidine-5′-monophosphate (CMP) solutions in assay buffer (25 mM Tris-HCl, pH 7.4, 0.005% Brij-35) were added to achieve final concentrations in the assay of 4 ng/ml CD73 and 50 μM of CMP. The assay mixture was incubated for 20 min at RT. The reaction was stopped by addition of 40 μL of malachite green reagent which was prepared by mixing together 10 ml 2M H2SO4, 2.5 ml of 15% ammonium molybdate and 0.2 ml of 11% Tween-20. The mixture was agitated vigorously for 10 min at RT, and absorbance at 620 nm was determined on a microplate spectrophotometer. […] The IC50 values were derived using a non-linear 4 parameter logistic model (XLFit software, IDBS) and correspond to the inflection points on dose-response curves.

[1] = biological target: T2, CD73 on U138 neuroglioma cells (Homo sapiens, UniProt P21589); assay: Inhibition of Ecto-5′-Nucleotidase Activity in U138 Neuroglioma Cells (Assay 2); assay type: cell-based; conditions: 50 μM CMP, 2 hr at 37° C., malachite green readout, read-out: Assay 2: IC50, inhibition of ecto-5′-nucleotidase activity in U138 neuroglioma cells
T2 construct: U138 neuroglioma cells, which express CD73 on their surface; endogenous in cells; host or cells: U138 neuroglioma cells (ATCC)
T2 sequence (P21589 27-549): T1 sequence (P21589 27-549)
Description: Inhibition of Ecto-5′-Nucleotidase Activity in U138 Neuroglioma Cells (Assay 2)
U138 cells were obtained from the American Type Culture Collection (ATCC) (Manassas, Va.), and cultured in complete growth media (DMEM, 10% FBS, 1 mM L-glutamine, 100 U penicillin-streptomycin) at 37° C., 5% CO2. The day before the experiment, cells were seeded at 2,500 cells/well in 100 μL of complete media into 96-well plates. Cells were washed twice with 200 μL of assay buffer (20 mM HEPES, pH 7.4, 137 mM NaCl, 5.4 mM KCl, 1.3 mM CaCl2, 4.2 mM NaHCO3, 1 mg/mL glucose) to remove residual inorganic phosphate. After washing, assays contained serial dilutions of test compounds and 50 μM of cytidine-5′-monophosphate (CMP) in a total volume of 200 μL of assay buffer, with a final DMSO concentration ≤0.1%. After 2 hr at 37° C., 5% CO2, 100 μL of supernatant was removed from the cells and the concentration of inorganic phosphate was determined using malachite green reagent. IC50 values for test compounds were determined from nonlinear regression fits of the data using XLfit (IDBS).

Row | IC50 (human CD73) [nM] | IC50 [1] [nM] | Structure (SMILES)
1 | 100 to 1000 | 100 to 1000 | CCOC(=O)[C@@H](OC[C@H]1O[C@@H](n2cnc3c(NC)nc(Cl)nc32)[C@H](O)[C@@H]1O)P(=O)(O)O (single isomer, unassigned) [Example 23a]
2 | < 100 | < 100 | CCOC(=O)[C@H](OC[C@H]1O[C@@H](n2cnc3c(NCc4ccccc4)nc(Cl)nc32)[C@H](O)[C@@H]1O)P(=O)(O)O (single isomer, unassigned) [Example 24]
3 | 100 to 1000 | 100 to 1000 | CCOC(=O)[C@@H](OC[C@H]1O[C@@H](n2cnc3c(NCc4ccccc4)nc(Cl)nc32)[C@H](O)[C@@H]1O)P(=O)(O)O (single isomer, unassigned) [Example 24a]
4 | < 100 | < 100 | CCOC(=O)[C@H](OC[C@H]1O[C@@H](n2cnc3c(NC4CCCC4)nc(Cl)nc32)[C@H](O)[C@@H]1O)P(=O)(O)O (single isomer, unassigned) [Example 25]
5 | < 100 | < 100 | CCOC(=O)[C@@H](OC[C@H]1O[C@@H](n2cnc3c(NC4CCCC4)nc(Cl)nc32)[C@H](O)[C@@H]1O)P(=O)(O)O (single isomer, unassigned) [Example 25a]
6 | < 100 | < 100 | CCOC(=O)[C@H](OC[C@H]1O[C@@H](n2cnc3c(-n4ccnc4)nc(Cl)nc32)[C@H](O)[C@@H]1O)P(=O)(O)O (single isomer, unassigned) [Example 26]
7 | 100 to 1000 | 100 to 1000 | CCOC(=O)[C@@H](OC[C@H]1O[C@@H](n2cnc3c(-n4ccnc4)nc(Cl)nc32)[C@H](O)[C@@H]1O)P(=O)(O)O (single isomer, unassigned) [Example 26a]
8 | < 100 | 100 to 1000 | CCOC(=O)[C@H](OC[C@H]1O[C@@H](n2cnc3c(OCC)nc(Cl)nc32)[C@H](O)[C@@H]1O)P(=O)(O)O (single isomer, unassigned) [Example 27]
9 | 100 to 1000 | 100 to 1000 | CCOC(=O)[C@@H](OC[C@H]1O[C@@H](n2cnc3c(OCC)nc(Cl)nc32)[C@H](O)[C@@H]1O)P(=O)(O)O (single isomer, unassigned) [Example 27a]
10 | < 100 | < 100 | CCOC(=O)[C@H](OC[C@H]1O[C@@H](n2cnc3c(C)nc(Cl)nc32)[C@H](O)[C@@H]1O)P(=O)(O)O (single isomer, unassigned) [Example 28]
11 | 100 to 1000 | > 1000 | CCOC(=O)[C@@H](OC[C@H]1O[C@@H](n2cnc3c(C)nc(Cl)nc32)[C@H](O)[C@@H]1O)P(=O)(O)O (single isomer, unassigned) [Example 28a]
12 | 100 to 1000 | > 1000 | CCOC(=O)[C@H](OC[C@H]1O[C@@H](n2ccc(=O)n(C)c2=O)[C@H](O)[C@@H]1O)P(=O)(O)O (single isomer, unassigned) [Example 30]
13 | < 100 | 100 to 1000 | CCNC(=O)[C@H](OC[C@H]1O[C@@H](n2cnc3c(NCC)nc(Cl)nc32)[C@H](O)[C@@H]1O)P(=O)(O)O (single isomer, unassigned) [Example 34]
14 | < 100 | < 100 | CCNC(=O)[C@@H](OC[C@H]1O[C@@H](n2cnc3c(NCC)nc(Cl)nc32)[C@H](O)[C@@H]1O)P(=O)(O)O (single isomer, unassigned) [Example 34a]
15 | < 100 | 100 to 1000 | CCOC(=O)[C@H](OC[C@H]1O[C@@H](n2cnc3c(NC(=O)c4ccccc4)nc(Cl)nc32)[C@H](O)[C@@H]1O)P(=O)(O)O (single isomer, unassigned) [Example 36]
16 | 100 to 1000 | > 1000 | CCOC(=O)[C@@H](OC[C@H]1O[C@@H](n2cnc3c(NC(=O)c4ccccc4)nc(Cl)nc32)[C@H](O)[C@@H]1O)P(=O)(O)O (single isomer, unassigned) [Example 36a]

Row | IC50 (human CD73) [nM] | IC50 [1] [nM] | Structure (SMILES)
17 | < 100 | 100 to 1000 | CCOC(=O)[C@H](OC[C@@H]1O[C@H](n2cnc3c(N)nc(C)nc32)[C@@H](O)[C@H]1O)P(=O)(O)O (single isomer, unassigned) [Example 37]
18 | < 100 | 100 to 1000 | CCOC(=O)[C@H](OC[C@H]1O[C@@H](n2cnc3c(N)nc(Cc4ccccc4)nc32)[C@H](O)[C@@H]1O)P(=O)(O)O (single isomer, unassigned) [Example 39]
19 | > 1000 | > 1000 | CCOC(=O)[C@@H](OC[C@H]1O[C@@H](n2cnc3c(N)nc(Cc4ccccc4)nc32)[C@H](O)[C@@H]1O)P(=O)(O)O (single isomer, unassigned) [Example 39a]
20 | < 100 | 100 to 1000 | CCOC(=O)[C@H](OC[C@H]1O[C@@H](n2cnc3c(N)nc(-c4ccccc4)nc32)[C@H](O)[C@@H]1O)P(=O)(O)O (single isomer, unassigned) [Example 40]
21 | 100 to 1000 | > 1000 | CCOC(=O)[C@H](OC[C@H]1O[C@@H](n2cnc3c(N)nc(-c4cc(F)cc(F)c4)nc32)[C@H](O)[C@@H]1O)P(=O)(O)O (single isomer, unassigned) [Example 41]
22 | < 100 | 100 to 1000 | CCOC(=O)[C@H](OC[C@H]1O[C@@H](n2cnc3c(N)nc(C(F)(F)F)nc32)[C@H](O)[C@@H]1O)P(=O)(O)O (single isomer, unassigned) [Example 42]
23 | > 1000 | > 1000 | CCOC(=O)[C@H](OC[C@H]1O[C@@H](n2cnc3c(N)nc(SCC)nc32)[C@H](O)[C@@H]1O)P(=O)(O)O (single isomer, unassigned) [Example 44]
24 | < 100 | < 100 | CCOC(=O)[C@H](OC[C@H]1O[C@@H](n2cnc3c(N)nc(C#N)nc32)[C@H](O)[C@@H]1O)P(=O)(O)O (single isomer, unassigned) [Example 45]
25 | 100 to 1000 | 100 to 1000 | CCOC(=O)[C@@H](OC[C@H]1O[C@@H](n2cnc3c(N)nc(C#N)nc32)[C@H](O)[C@@H]1O)P(=O)(O)O (single isomer, unassigned) [Example 45a]
26 | 100 to 1000 | 100 to 1000 | CCOC(=O)[C@H](OC[C@H]1O[C@@H](n2cnc3c(N)nc(CC(C)C)nc32)[C@H](O)[C@@H]1O)P(=O)(O)O (single isomer, unassigned) [Example 46]
27 | < 100 | 100 to 1000 | CCOC(=O)[C@H](OC[C@H]1O[C@@H](n2cnc3c(N)nc(-c4ncco4)nc32)[C@H](O)[C@@H]1O)P(=O)(O)O (single isomer, unassigned) [Example 49]
28 | 100 to 1000 | > 1000 | CCOC(=O)[C@@H](OC[C@H]1O[C@@H](n2cnc3c(N)nc(-c4ncco4)nc32)[C@H](O)[C@@H]1O)P(=O)(O)O (single isomer, unassigned) [Example 49a]
29 | 100 to 1000 | > 1000 | CCOC(=O)[C@H](OC[C@H]1O[C@@H](n2cnc3c(N)nc(C4CC4)nc32)[C@H](O)[C@@H]1O)P(=O)(O)O (single isomer, unassigned) [Example 50]
30 | 100 to 1000 | > 1000 | CCOC(=O)[C@H](OC[C@H]1O[C@@H](n2cnc3c(N)nc([C@@H]4NCCO4)nc32)[C@H](O)[C@@H]1O)P(=O)(O)O (single isomer, unassigned) [Example 51]
31 | 100 to 1000 | > 1000 | CCOC(=O)[C@H](OC[C@H]1O[C@@H](n2cnc3c(N)nc([C@H]4NCCO4)nc32)[C@H](O)[C@@H]1O)P(=O)(O)O (single isomer, unassigned) [Example 51a]
